Data taken from publication PMC9818267, “Brain Natriuretic Peptide Protects Cardiomyocytes from Apoptosis and Stimulates Their Cell Cycle Re-Entry in Mouse Infarcted Hearts” (Cells, 2022).
No end group written: not given here.

Assays:
[1] = Infarct size by echocardiography; format: in vivo, mouse; details: two weeks after surgery
Text: To assess for the reproducibility of LAD occlusion, we measured the infarct size by echocardiography analysis (% of the MI length long axis). Two weeks after surgery, the infarct area represented 37 ± 2.5% of the LV in saline injected mice (n = 10) and 31.5 ± 4% in BNP-treated mice (n = 7).

cardiomyocytes (CMs) [2] = details: adult CMs from unmanipulated BNP-treated hearts vs saline, p = 0.008; cited from earlier work
Text: The percentages of mononucleated CMs increased in all the BNP-treated hearts (Figure 2B,E,G).

[3] = cited from earlier work
Text: In previous work, we highlighted the cardioprotective effect of BNP intraperitoneal (ip) injections in infarcted mice. Contractility increased twofold and heart remodeling (the percentage of changes of the left ventricle volume) decreased (−79%, p = 0.04) 4 weeks after MI in BNP-treated mice when compared to saline-injected mice. At the cellular level, BNP injections decreased the infarct size by 20% and reduced fibrosis. At least a part of the BNP positive effect in infarcted mice is due to increased cardiac angiogenesis and vasculogenesis. Indeed, BNP stimula ... || The concentrations of BNP used in this study were already shown to stimulate the mobilization, proliferation and differentiation of the endothelial precursor cells. In our first work, we verified that these concentrations have no impact on blood pressure, heart rate and cardiac output. In contrast, these BNP concentrations decrease the heart remodeling, the left ventricular volume and left ventricular end diastolic diameter and increase by 2-fold the contractility, 4 weeks after MI [11]. Furthermore, at the cellular level, these BNP concentrations increase the number of ca ...

cardiomyocytes (CMs) [4] = assay: CM nucleation status and cross-sectional area; format: in vivo, mouse; details: vs saline
Procedure: After 25 min sedimentation, CMs were used for molecular analysis, Western blot analysis, flow cytometry analysis or fixed with 2.5% PFA 15 min at room temperature (RT) and stained with DAPI to evaluate the frequency of mono and bi-nucleated CMs.
CM area was assessed by α actinin and laminin stainings and image J software (1.53t version from the 24.08.2022, Mac OX X, Bethesda, MD, USA) for processing using CIF outliner cell Plugin. Only CMs with circularity >0.5 were considered.

cardiomyocytes (CMs) [5] = assay: Cardiomyocyte isolation (Langendorff-Free method) and counting; format: in vivo, mouse
Procedure: (§1) BNP was injected into infarcted adults, and unmanipulated neonatal and adult mice. Directly after surgery, NaCl (saline) or BNP (1.3 µg/20 g in 20 µL) was injected into the left ventricle cavity. At 24 h after MI, mice were intraperitoneal (ip) injected with BNP (2 µg/20 g mice) or saline every 2 days. C57BL/6 mice were sacrificed 1- and 14 days post-MI and Myh6 MerCreMer mice were sacrificed 14 days post-MI (Figure 1A). Neonatal C57BL/6 mice (3 days after birth) were injected ip with NaCl or BNP every two days (1 µg/2 g; Bachem; synthetic mouse BNP (1–45) peptide (catalog number H-7558)). Mice were sacrificed 11 days after birth (Figure 1B). Eight week old C57 BL/6 mice or Myh6 MerCreMer unmanipulated mice were injected ip with BNP (2 µg/20 g mice) or NaCl every two days (Figure 1C). Two weeks after the first injection, mice were sacrificed. To assess for the implication of the ERK signaling pathway in the BNP effect on CMs, PD0325901 (60 µg/20 g mice in 80 µL) was administered by gavage in adult unmanipulated mice 1 h before BNP injection (2 µg/20 g mice).
(§2) CM isolations were performed thanks to the Langendorff-Free method. […] Thereafter, the heart was removed from the chest and the left ventricle was perfused with enzymatic solution containing collagenase II (120 U/mL), collagenase IV (120 U/mL) (Worthington, Biochemical Corporation, USA) and protease XIV (0.05 mg/mL or 0.175 U/mL) (Sigma-Aldrich, Merck, Darmstadt, Germany). In each experiment, a full digestion of the heart was obtained. After digestion, cardiac cells were dissociated by gentle pipetting, filtered and collected after 25 min sedimentation. For infarcted hearts, the tissue was separated into the three zones (ZI, BZ and RZ). The three different areas were weighted before gentle pipetting.
Total CM cell numbers were counted before sedimentation by two different people and in blinded experiments. The CMs were easily identified based on their size and on Troponin I expression (for all experiments with flow cytometry analysis). Round and rod-shaped CMs were counted and their numbers related to the heart, to the mg of tissue and also to the control hearts (saline-injected hearts) always performed in parallel the same day than BNP-treated hearts (i.e., with the same digestion buffer).

Troponin T = Troponin T plasma concentration (ECLIA) after MI; format: in vivo, mouse; details: BNP vs saline
Procedure: Troponin T plasma levels were quantified using an electrochemiluminescence immunoassay analyzer “ECLIA” (cobas e 801 immunoanalysis system, Roche Diagnostics, Rotkreuz, Switzerland) in the hematology laboratory of the Centre Hospitalier Universitaire Vaudois (CHUV). Blood was collected 24 h and 3 days after infarction induction in heparin microvette (Sarstedt, Nümbrecht, Germany).

ERK = assay: Western blot pERK/ERK in adult CMs stimulated in vitro; format: cell-based, mouse; details: adult CMs stimulated with BNP for 2–3 h in vitro, vs untreated
Procedure: as §2
(§3) Total proteins were extracted from CMs isolated from adult infarcted and unmanipulated neonatal and adult hearts. Proteins were transferred to nitrocellulose membranes (Biorad) before incubation with primary antibodies overnight at 4 °C. Secondary antibodies were added 1 h at RT in the dark (Supplementary File S1). The signal was detected and quantified with the Odyssey infrared imaging system (LI-COR. Biosciences, Bad Homburg, Germany). All results were normalized to the tubulin protein level or to the total protein level thanks to stainings with the Revert 700 Total protein Stain (LI-COR).

Akt = assay: Western blot pAkt/Akt in adult CMs stimulated in vitro; format: cell-based, mouse; details: adult CMs stimulated with BNP for 2–3 h in vitro, vs untreated
Procedure: as §2, §3

phospholamban (PLB) = assay: Western blot pPLB/PLB in CMs isolated from BNP-injected hearts; format: in vivo, mouse; details: vs saline
Procedure: as §1, §2, §3

Brain Natriuretic Peptide (SQGSTLRVQQRPQNSKVTHISSCFGHKIDRIGSVSRLGCNALKLL; not fully specified; ends and bridges not checked; UniProt P40753 77-121, looked up) [BNP, synthetic mouse BNP (1–45) peptide (Bachem, catalog number H-7558)]
reduction of infarct size ([1]; BNP vs saline): 15% | infarct area as % of the LV (% of the MI length long axis) ([1]; BNP-treated n = 7, saline 37 ± 2.5% (n = 10)): 31.5 ± 4% | CM cross-sectional area change (cardiomyocytes (CMs) [2]): −6% | heart remodeling (percentage of changes of the left ventricle volume) change ([3]; 4 weeks after MI, BNP vs saline, p = 0.04): −79% | contractility increase ([3]; 4 weeks after MI, BNP vs saline): twofold | impact on blood pressure, heart rate and cardiac output ([3]; BNP concentrations used in this study): no impact | decrease of infarct size ([3]; BNP injections in infarcted mice): 20% | percentages of mononucleated CMs (cardiomyocytes (CMs) [4]; all BNP-treated hearts (infarcted, neonatal, adult)): increased | frequency of small CMs (cross-sectional area) (cardiomyocytes (CMs) [4]; all areas of BNP-treated infarcted hearts): significantly higher | CM number per mg tissue (cardiomyocytes (CMs) [5]; BZ and RZ of infarcted hearts, BNP vs saline): No change | CM cell number per heart (cardiomyocytes (CMs) [5]; BZ or RZ of infarcted hearts, BNP vs saline): No increase | increase of number of CMs per mg tissue (cardiomyocytes (CMs) [5]; ZI of infarcted hearts, BNP vs saline): 2 fold | increase of number of CMs related to saline-injected littermates (cardiomyocytes (CMs) [5]; ZI of infarcted hearts, same-day isolation with same enzymatic cocktail): 2.2 fold | increase of total number of CMs per heart (cardiomyocytes (CMs) [5]; infarct area (ZI) of infarcted adult hearts, BNP 2 µg/20 g ip every 2 days, vs saline): 81% | CM cell number in NPR-A deficient hearts (cardiomyocytes (CMs) [5]; unmanipulated adult NPR-A −/− mice, saline n = 4, BNP n = 3): did not change | increase of number of CMs related to saline-injected littermates (cardiomyocytes (CMs) [5]; unmanipulated adult hearts): 28.5% | increase of total number of CMs per heart (cardiomyocytes (CMs) [5]; unmanipulated adult hearts, BNP 2 µg/20 g ip every 2 days for 2 weeks, vs saline): 19% | increase of number of CMs per mg tissue (cardiomyocytes (CMs) [5]; unmanipulated adult hearts, BNP vs saline): 26% | number of CMs in the presence of ERK inhibitor (cardiomyocytes (CMs) [5]; unmanipulated adult mice, PD0325901 (60 µg/20 g) 1 h before each BNP injection, 2 weeks, n = 5 per group): did not increase | increase of number of CMs related to saline-injected littermates (cardiomyocytes (CMs) [5]; unmanipulated neonatal hearts): 23% | increase of total number of CMs per heart (cardiomyocytes (CMs) [5]; unmanipulated neonatal hearts, BNP 1 µg/2 g ip every 2 days from day 3, sacrifice day 11, vs saline): 18% | increase of number of CMs per mg tissue (cardiomyocytes (CMs) [5]; unmanipulated neonatal hearts, BNP vs saline): 44% | Troponin T plasma concentration decrease (Troponin T; 1 day after MI): 2.6 × | Troponin T plasma concentration decrease (Troponin T; 3 days after MI): 2.1 × | pERK/ERK ratio increase (ERK): 1.9 × | pAkt/Akt ratio increase (Akt): 2.5 × | pPLB/PLB ratio change (phospholamban (PLB); CMs from remote zone (RZ) of infarcted hearts after BNP injections): −32% | pPLB/PLB ratio increase (phospholamban (PLB); CMs from unmanipulated adult hearts after BNP injections (2–3 h before CM isolation)): 1.5 × | pPLB/PLB ratio increase (phospholamban (PLB); CMs from unmanipulated neonatal hearts after BNP injections): 3.5 × | pPLB/PLB ratio increase (phospholamban (PLB); CMs isolated from border zone (BZ) of infarcted hearts after BNP injections): 2.7 ×
